According to US20080103164A1, “USEFUL COMPOUNDS FOR HPV INFECTION” (priority 2004, published 2008):

Each compound was assayed on episomal HPV-16 DNA in W12-20850 cells (assay: W-12 cellular assay: episomal HPV-16 DNA quantified by hybrid capture in W12-20850 cells). Settings: Human papillomavirus 16, 96 h, four days incubation, inhibition of episomal HPV-16 DNA relative to untreated control.
Type: cell-based, HPV16
Description: Compounds of the current invention are believed useful in the treatment and/or prophylaxis of conditions and diseases associated with HPV infection. Activity mediated through HPV was determined using the following W-12 cellular assay. The […] cell line used contains HPV16 DNA and was derived from a low-grade cervical dysplasia tissue by Margaret Stanley and subsequently clonally selected by Paul Lambert (University of Wisconsin). One of these clones, […]-20850, contains 1000 copies of episomal HPV16 DNA and was used in the cell-based assay. […]-20850 cells were routinely cultured with a gamma-irradiated (6000 rads) feeder layer of 3T3 cells. Assays, however, were run in the absence of a 3T3 feeder layer. […]-20850 and 3T3 cells were routinely split when they were sub-confluent. […]-20850 were grown in […] Medium which is constituted of 25% DMEM (Gibco BRL, Cat # 12430-047), 75% F12 Media (Gibco BRL, Cat # 11765-021) and 2.5% FBS. The additives include […] Adenine (Sigma, Cat # A-9795), […] Hydrocortisone (Calbiochem, Cat # 386698), […] Bovine Insulin (Sigma, Cat # 1-1882), 8.4 ng/ml cholera toxin (Fluka, Cat # 26694) and 10 ng/ml EGF (Invitrogen, Cat # 13247-051). 3T3 cells were grown in DMEM containing 10% FBS. Cell lines were incubated at 37° C., in the presence of 5% CO2. For the assay, […]-20850 cells were seeded into a 96 well plate-containing compound. Plates were incubated at 37° C. in the presence of 5% CO2, for four days. On the fourth day, cells were lysed and the amount of episomal HPV-16 DNA was quantified using a non-radioactive hybrid capture technique with HPV-16 specific capture and detection probes. The percent inhibition relative to untreated control cells was then determined. The hybrid capture assay is run in a 96 well plate format. Hybridization plates (Nunc Maxisorb Cat # 450320) were coated with a mixture of capture probe and ReactiBind solution for at least 4 hours and then washed with 0.2×SSC, 0.05% Tween-20 (SSCT) prior to blocking with 150 μl/well of 0.2 N NaOH, 1% Igepal, 10 mg/ml hsDNA for 6-8 hours. The hybridization was carried out by mixing 27 μl of lysed cells with 45 μl of denatured detection probe in 6M guanidine isothiocyanate. To prevent evaporation, 50 μl of mineral oil was added to each well. The plate was then heated to 90° C. for 6.5 minutes and the hybridization continued at 42° C. overnight. Assay plates were washed 6 times with SSC/T. Anti-digoxigenin HRP-conjugated Ab (Boehringer Mannheim 1207733, 1:5000) was incubated in the wells for 30 min at room temperature and washed with PBS/0.05% Tween-20. SuperSignal LBA substrate (Pierce Cat # 37070) was added, and chemiluminescence was measured using Wallac 1420 Victor plate reader.

SMILES | IC50 [nM]
COC(=O)N1CCc2c([nH]c3ccc(Cl)cc23)C1c1ccc(C)cc1 (stereo not drawn) [Example 2, Methyl 6-chloro-1-(4-methylphenyl)-1,3,4,9-tetrahydro-2H-β-carboline-2-carboxylate] | 68
CC(=O)N1CCc2c([nH]c3ccccc23)C1c1ccc(C)cc1 (stereo not drawn) [Example 18, 2-Acetyl-1-(4-methylphenyl)-2,3,4,9-tetrahydro-1H-β-carboline] | 5000
c1ccc(-c2ccnc(N3CCc4c([nH]c5ccccc45)C3c3ccc4c(c3)CCO4)n2)cc1 (stereo not drawn) [Example 36, 1-(2,3-dihydro-1-benzofuran-5-yl)-2-(4-phenyl-2-pyrimidinyl)-2,3,4,9-tetrahydro-1H-β-carboline] | 3000
c1ccc(-c2ccnc(N3CCc4c([nH]c5ccccc45)C3c3ccc4c(c3)OCO4)n2)cc1 (stereo not drawn) [Example 34, 1-(1,3-benzodioxol-5-yl)-2-(4-phenyl-2-pyrimidinyl)-2,3,4,9-tetrahydro-1H-β-carboline] | 2000
COC(=O)N1CCc2c([nH]c3ccc(Br)cc23)C1c1ccc(C)cc1 (stereo not drawn) [Example 10, Methyl 6-bromo-1-(4-methylphenyl)-1,3,4,9-tetrahydro-2H-β-carboline-2-carboxylate] | 11
Cc1cn(-c2ccnc(N3CCc4c([nH]c5ccccc45)C3c3ccc4c(c3)CCO4)n2)cn1 (stereo not drawn) [Example 39, 1-(2,3-dihydro-1-benzofuran-5-yl)-2-[4-(4-methyl-1H-imidazol-1-yl)-2-pyrimidinyl]-2,3,4,9-tetrahydro-1H-β-carboline] | 2000
c1cnc(N2CCc3c([nH]c4ccccc34)C2c2ccc3c(c2)OCO3)nc1 (stereo not drawn) [Example 33, 1-(1,3-benzodioxol-5-yl)-2-(2-pyrimidinyl)-2,3,4,9-tetrahydro-1H-β-carboline] | 5000
c1cncc(-c2ccnc(N3CCc4c([nH]c5ccccc45)C3c3ccc4c(c3)CCO4)n2)c1 (stereo not drawn) [Example 37, 1-(2,3-dihydro-1-benzofuran-5-yl)-2-[4-(3-pyridinyl)-2-pyrimidinyl]-2,3,4,9-tetrahydro-1H-β-carboline] | 4000
Cc1ccc(C2c3[nH]c4cc(F)ccc4c3CCN2C(=O)CCc2ccccc2)cc1 (stereo not drawn) [Example 26, 7-Fluoro-1-(4-methylphenyl)-2-(3-phenylpropanoyl)-2,3,4,9-tetrahydro-1H-β-carboline] | 2000
Cc1ccc(C2c3[nH]c4ccc(C)cc4c3CCN2C(=O)CCc2ccccc2)cc1 (stereo not drawn) [Example 25, 6-Methyl-1-(4-methylphenyl)-2-(3-phenylpropanoyl)-2,3,4,9-tetrahydro-1H-β-carboline] | 400
O=C(/C=C/c1ccccc1)N1CCc2c([nH]c3ccccc23)[C@H]1c1ccc2c(c1)CCO2 [Example 30, (1R)-1-(2,3-dihydro-1-benzofuran-5-yl)-2-[(2E)-3-phenyl-2-propenoyl]-2,3,4,9-tetrahydro-1H-β-carboline] | > 20000
Cc1ccc(C2c3[nH]c4ccc(Br)cc4c3CCN2C(=O)CCc2ccccc2)cc1 (stereo not drawn) [Example 11, 6-Bromo-1-(4-methylphenyl)-2-(3-phenylpropanoyl)-2,3,4,9-tetrahydro-1H-β-carboline] | 20
COc1ccc(-c2ccnc(N3CCc4c([nH]c5ccccc45)C3c3ccc4c(c3)OCO4)n2)cc1 (stereo not drawn) [Example 32, 1-(1,3-benzodioxol-5-yl)-2-{4-[4-(methyloxy)phenyl]-2-pyrimidinyl}-2,3,4,9-tetrahydro-1H-β-carboline] | 2000
COc1ccc2c3c([nH]c2c1)C(c1ccc(C)cc1)N(C(=O)CCc1ccccc1)CC3 (stereo not drawn) [Example 27, 7-(Methyloxy)-1-(4-methylphenyl)-2-(3-phenylpropanoyl)-2,3,4,9-tetrahydro-1H-β-carboline] | 6000
c1ccc(-c2ccnc(N3CCc4c([nH]c5ccccc45)C3c3ccccc3)n2)cc1 (stereo not drawn) [Example 35, 1-phenyl-2-(4-phenyl-2-pyrimidinyl)-2,3,4,9-tetrahydro-1H-β-carboline] | 2000
O=C(/C=C/c1ccccc1)N1CCc2c([nH]c3ccccc23)[C@@H]1c1ccc2c(c1)CCO2 [Example 31, (1S)-1-(2,3-dihydro-1-benzofuran-5-yl)-2-[(2E)-3-Phenyl-2-propenoyl]-2,3,4,9-tetrahydro-1H-β-carboline] | 2000
c1ccc2c3c([nH]c2c1)C(c1ccc2c(c1)CCO2)N(c1nccc(-n2ccnc2)n1)CC3 (stereo not drawn) [Example 38, 1-(2,3-dihydro-1-benzofuran-5-yl)-2-[4-(1H-imidazol-1-yl)-2-pyrimidinyl]-2,3,4,9-tetrahydro-1H-β-carboline] | 3000
COC(=O)N1CCc2c([nH]c3ccc(F)cc23)C1c1ccc(C)cc1 (stereo not drawn) [Example 6, Methyl 6-fluoro-1-(4-methylphenyl)-1,3,4,9-tetrahydro-2H-β-carboline-2-carboxylate] | 365

Now from value to compound:

IC50 [nM] | SMILES
22 | Cc1ccc(C2c3[nH]c4ccc(Cl)cc4c3CCN2C(=O)OCc2ccccc2)cc1 (stereo not drawn) [Example 4, Phenylmethyl 6-chloro-1-(4-methylphenyl)-1,3,4,9-tetrahydro-2H-β-carboline-2-carboxylate]
15 | Cc1ccc([C@H]2c3[nH]c4ccc(Cl)cc4c3CCN2C(=O)CCc2ccccc2)cc1 [Example 14, (1S)-6-Chloro-1-(4-methylphenyl)-2-(3-phenylpropanoyl)-2,3,4,9-tetrahydro-1H-β-carboline]
24000 | Cc1ccc(C2c3[nH]c4ccccc4c3CCN2S(C)(=O)=O)cc1 (stereo not drawn) [Example 16, 1-(4-Methylphenyl)-2-(methylsulfonyl)-2,3,4,9-tetrahydro-1H-β-carboline]
26000 | Cc1ccc(C2c3[nH]c4ccccc4c3CCN2C(=O)C#Cc2ccccc2)cc1 (stereo not shown) [Example 20, 1-(4-Methylphenyl)-2-(3-phenyl-2-propynoyl)-2,3,4,9-tetrahydro-1H-b-carboline]
8000 | Cc1ccc([C@@H]2c3[nH]c4ccc(Cl)cc4c3CCN2C(=O)CCc2ccccc2)cc1 [Example 13, (1R)-6-Chloro-1-(4-methylphenyl)-2-(3-phenylpropanoyl)-2,3,4,9-tetrahydro-1H-β-carboline]
60 | Cc1ccc(C2c3[nH]c4ccc(Cl)cc4c3CCN2C(=O)CCc2ccccc2)cc1 (stereo not drawn) [Example 3, 6-Chloro-1-(4-methylphenyl)-2-(3-phenylpropanoyl)-2,3,4,9-tetrahydro-1H-β-carboline]
4000 | Cc1ccc(C2c3[nH]c4ccccc4c3CCN2C(=O)CNC(=O)OCc2ccccc2)cc1 (stereo not shown) [Example 22, Phenylmethyl {2-[1-(4-methylphenyl)-1,3,4,9-tetrahydro-2H-b-carbolin-2-yl]-2-oxoethyl}carbamate]
18000 | Cc1ccc(C2c3[nH]c4ccccc4c3CCN2C(=O)CCc2cccnc2)cc1 (stereo not drawn) [Example 21, 1-(4-Methylphenyl)-2-[3-(3-pyridinyl)propanoyl]-2,3,4,9-tetrahydro-1H-β-carboline]
216 | Cc1ccc(C2c3[nH]c4ccc(F)cc4c3CCN2C(=O)CCc2ccccc2)cc1 (stereo not drawn) [Example 7, 6-Fluoro-1-(4-methylphenyl)-2-(3-phenylpropanoyl)-2,3,4,9-tetrahydro-1H-β-carboline]
7000 | Cc1ccc(C2c3[nH]c4ccccc4c3CCN2S(=O)(=O)Cc2ccccc2)cc1 (stereo not drawn) [Example 15, 1-(4-Methylphenyl)-2-[(phenylmethyl)sulfonyl]-2,3,4,9-tetrahydro-1H-β-carboline]
10000 | Cc1ccc(C2c3[nH]c4ccccc4c3CCN2S(=O)(=O)c2ccc(N)cc2)cc1 (stereo not shown) [Example 17, (4-{[1-(4-Methylphenyl)-1,3,4,9-tetrahydro-2H-b-carbolin-2-yl]sulfonyl}phenyl)amine]
446 | Cc1ccc(C2c3[nH]c4ccc(F)cc4c3CCN2C(=O)OCc2ccccc2)cc1 (stereo not drawn) [Example 8, Phenylmethyl 6-fluoro-1-(4-methylphenyl)-1,3,4,9-tetrahydro-2H-β-carboline-2-carboxylate]

Same assay, conditions: four days incubation, inhibition of episomal HPV-16 DNA relative to untreated control

IC50 [nM] | SMILES
3000 | O=C(/C=C/c1ccccc1)N1CCc2c([nH]c3ccccc23)C1c1ccc2c(c1)CCO2 (stereo not drawn) [Example 29, (1R/1S)-1-(2,3-dihydro-1-benzofuran-5-yl)-2-[(2E)-3-phenyl-2-propenoyl]-2,3,4,9-tetrahydro-1H-β-carboline]
